Measured values as given in patent US20250144067A1, “PERSONALIZED STARVATION THERAPY FOR CANCER” (Faeth Therapeutics, Inc., priority 2021, published 2025).
Structures can show the parent of a compound that is named as a salt. Where two headings read alike, the source gives them in different places.

Columns and labels:
[1] = tested on: NCI-H292 lung cancer cells; test: FDA drug screening, complete media vs cholesterol-free media without statin (TABLE 1); type: cell-based, human
[2] = tested on: NCI-H292 lung cancer cells; test: FDA drug screening, complete media vs cholesterol-free media with simvastatin (TABLE 2); type: cell-based, human
[3] = Complete minus Cholesterol-free, greater than 0 enhanced anti-cancer activity, about 0 neutral, below 0 antagonist
[4] = NCI-H292 cells, FDA drug library screen, cholesterol-free media without statin
[5] = NCI-H292 cells, FDA drug library screen, complete media
[6] = NCI-H292 cells, cholesterol-free media with simvastatin 0.04 μM, cell growth value in FDA drug screen
[7] = NCI-H292 cells, complete media, cell growth value in FDA drug screen
[8] = complete media minus cholesterol-free media + simvastatin, >0 enhanced anti-cancer activity, about 0 neutral, <0 antagonist
[9] = Complete minus Cholesterol-free, >0 enhanced anti-cancer activity, about 0 neutral, <0 antagonist
[10] = NCI-H292 cells, cholesterol-free media without statin, FDA drug library screen
[11] = NCI-H292 cells, complete media, FDA drug library screen
[12] = NCI-H292 cells, FDA library drug in cholesterol-free media with simvastatin 0.04 μM
[13] = NCI-H292 cells, FDA library drug in complete media
[14] = complete media vs cholesterol-free media + simvastatin (0.04 μM), >0 enhanced anti-cancer activity, about 0 neutral, <0 antagonist
[15] = Complete minus Cholesterol-free, […]
[16] = NCI-H292 cells, drug in cholesterol-free media with simvastatin 0.04 μM
[17] = NCI-H292 cells, drug in complete media
[18] = complete media vs cholesterol-free media + simvastatin (0.04 μM), […]
[19] = NCI-H292 cells, cholesterol-free media without statin
[20] = NCI-H292 cells, FDA drug library screen, cholesterol-free media with simvastatin 0.04 μM
[21] = NCI-H292 cells in cholesterol-free media without statin
[22] = NCI-H292 cells in complete media
[23] = Complete minus Cholesterol-free, greater than 0 enhanced anti-cancer activity, about 0 neutral, below 0 antagonists
[24] = NCI-H292 cells, cholesterol-free media with simvastatin 0.04 μM, FDA drug library screen (TABLE 2)
[25] = NCI-H292 cells, complete media, FDA drug library screen (TABLE 2)
[26] = complete media minus cholesterol-free media + simvastatin (0.04 μM), >0 enhanced anti-cancer activity, about 0 neutral, <0 antagonist
[27] = complete vs cholesterol-free media, >0 enhanced anti-cancer activity, about 0 neutral, <0 antagonist

Compound: Cn1nnc(-c2ccc(-c3ccc(N4C[C@H](CO)OC4=O)cc3F)cn2)n1 [Tedizolid]
- Difference [1, 3]: −0.10
- Cholesterol-free [1, 4]: 0.9116
- Complete [1, 5]: 0.8073
- Cholesterol-free media + simvastatin (0.04 μM) [2, 6]: 1.119
- Complete Media [2, 7]: 1.184
- Difference [2, 8]: 0.07

Compound: Nelfinavir (Mesylate)
- Difference [1, 9]: −0.02
- Cholesterol-free [1, 10]: 1.193
- Complete [1, 11]: 1.169
- Cholesterol-free media + simvastatin (0.04 μM) [2, 12]: 1.565
- Complete Media [2, 13]: 1.199
- Difference [2, 14]: −0.37

Compound: Polymyxin B (Sulfate)
- Difference [1, 15]: −0.03
- Cholesterol-free [1, 10]: 0.9793
- Complete [1, 11]: 0.9463
- Cholesterol-free media + simvastatin (0.04 μM) [2, 16]: 1.169
- Complete Media [2, 17]: 0.9427
- Difference [2, 18]: −0.23

Compound: COc1ccccc1OCC(O)CN1CCN(CC(=O)Nc2c(C)cccc2C)CC1 (stereo not shown) [Ranolazine]
- Cholesterol-free [1, 19]: 1.774
- Complete ([1]; NCI-H292 cells, complete media): 1.359
- Difference ([1]; complete vs cholesterol-free media, greater than 0 enhanced anti-cancer activity, about 0 neutral, below 0 antagonists): −0.41
- Cholesterol-free media + simvastatin (0.04 μM) [2, 20]: 1.311
- Complete Media [2, 5]: 1.162
- Difference [2, 14]: −0.15

Compound: Cc1nc(C)c(C)nc1C [Ligustrazine (hydrochloride)]
- Difference [1, 9]: −0.06
- Cholesterol-free [1, 10]: 1.047
- Complete [1, 11]: 0.9829
- Cholesterol-free media + simvastatin (0.04 μM) [2, 16]: 1.229
- Complete Media [2, 17]: 1.02
- Difference [2, 14]: −0.21

Compound: N=C(N)NCCC[C@H](N)C(=O)O [L-Arginine]
- Cholesterol-free [1]: 0.984
- Complete [1]: 1.115
- Difference [1]: 0.13
- Cholesterol-free media + simvastatin (0.04 μM) [2]: 1.189
- Complete Media [2]: 1.484
- Difference [2]: 0.29

Compound: C1CCN2C[C@@H]3C[C@@H](CN4CCCC[C@@H]34)[C@H]2C1 [(−)-Sparteine]
- Difference [1, 15]: −0.60
- Cholesterol-free [1, 21]: 1.432
- Complete [1, 22]: 0.8366
- Cholesterol-free media + simvastatin (0.04 μM) ([2]; NCI-H292 cells, cholesterol-free media with simvastatin 0.04 μM, […]): 1.054
- Complete Media ([2]; NCI-H292 cells, complete media, […]): 1.106
- Difference ([2]; complete media minus cholesterol-free media + simvastatin, […]): 0.05

Compound: C=CC(N)CCC(=O)O (stereo not shown) [Vigabatrin (hydrochloride)]
- Difference [1, 23]: −0.74
- Cholesterol-free [1, 21]: 1.769
- Complete [1, 22]: 1.024
- Cholesterol-free media + simvastatin (0.04 μM) [2, 24]: 1.122
- Complete Media [2, 25]: 1.063
- Difference [2, 26]: −0.06

Compound: COCCCN1CCC(NC(=O)c2cc(Cl)c(N)c3c2OCC3)CC1 [Prucalopride]
- Difference [1, 23]: −0.49
- Cholesterol-free [1, 21]: 1.522
- Complete [1, 22]: 1.033
- Cholesterol-free media + simvastatin (0.04 μM) [2, 6]: 0.8751
- Complete Media [2, 7]: 0.9854
- Difference [2, 8]: 0.11

Compound: CC(N/C(=N\C#N)Nc1ccncc1)C(C)(C)C (stereo not shown) [Pinacidil monohydrate]
- Difference [1, 9]: −0.26
- Cholesterol-free [1, 19]: 1.093
- Complete ([1]; NCI-H292 cells, complete media): 0.8337
- Cholesterol-free media + simvastatin (0.04 μM) [2, 12]: 1.085
- Complete Media [2, 13]: 0.8064
- Difference [2, 14]: −0.28

Compound: CCc1cc(/C(C)=N/OCc2ccc(C3CCCCC3)c(C(F)(F)F)c2)ccc1CN1CC(C(=O)O)C1 [Siponimod]
- Difference [1, 9]: −0.01
- Cholesterol-free [1, 10]: 0.9324
- Complete [1, 11]: 0.9251
- Cholesterol-free media + simvastatin (0.04 μM) [2, 12]: 1.121
- Complete Media [2, 13]: 0.7701
- Difference [2, 14]: −0.35

Compound: Cc1nc2n(c(=O)c1CCN1CCC(c3noc4cc(F)ccc34)CC1)CCCC2 [Risperidone]
- Cholesterol-free [1]: 1.099
- Complete [1]: 0.9616
- Difference [1]: −0.14
- Cholesterol-free media + simvastatin (0.04 μM) [2]: 0.9957
- Difference [2]: 0.16

Compound: NC(=O)CN1CC(O)CC1=O (stereo not shown) [Oxiracetam]
- Difference [1, 9]: −0.22
- Cholesterol-free [1, 19]: 1.104
- Complete ([1]; NCI-H292 cells, complete media): 0.8826
- Cholesterol-free media + simvastatin (0.04 μM) [2, 12]: 1.234
- Complete Media [2, 13]: 0.9456
- Difference [2, 14]: −0.29

Compound: COc1ccc(CCN(C)CCC[C@](C#N)(c2ccc(OC)c(OC)c2)C(C)C)cc1OC.Cl [(R)-Verapamil (hydrochloride)]
- Difference [1, 15]: 0.02
- Cholesterol-free [1, 10]: 0.8697
- Complete [1, 11]: 0.8867
- Cholesterol-free media + simvastatin (0.04 μM) [2, 20]: 1.005
- Complete Media [2, 5]: 0.92
- Difference [2, 18]: −0.08

Compound: CCN(CC)CCCC(C)Nc1ccnc2cc(Cl)ccc12 (stereo not shown) [Chloroquine]
- Cholesterol-free [1]: 1.226
- Complete [1]: 0.9181
- Difference [1]: −0.31
- Cholesterol-free media + simvastatin (0.04 μM) [2]: 2.192
- Complete Media [2]: 0.9997
- Difference [2]: −1.19

Compound: O.O.O.O.O=P([O-])(O)C(Cl)(Cl)P(=O)([O-])O.[Na+].[Na+] [Clodronate (disodium tetrahydrate)]
- Difference [1, 9]: −0.05
- Cholesterol-free [1, 10]: 1.08
- Complete [1, 11]: 1.034
- Cholesterol-free media + simvastatin (0.04 μM) [2, 6]: 0.8439
- Complete Media [2, 7]: 0.9326
- Difference [2, 8]: 0.09

Compound: CC(C)C(=O)Oc1ccc(CO)cc1[C@H](CCN(C(C)C)C(C)C)c1ccccc1 [Fesoterodine]
- Cholesterol-free [1, 10]: 0.8973
- Complete [1, 11]: 1.535
- Difference [1, 27]: 0.64
- Cholesterol-free media + simvastatin (0.04 μM) [2, 12]: 1.104
- Complete Media [2, 13]: 0.8265
- Difference [2, 14]: −0.28

Compound: Cn1cc(C(=O)[C@@H]2CCc3nc[nH]c3C2)c2ccccc21 [Ramosetron (Hydrochloride)]
- Difference [1, 9]: 0.03
- Cholesterol-free [1, 10]: 0.9223
- Complete [1, 11]: 0.9545
- Cholesterol-free media + simvastatin (0.04 μM) [2, 20]: 1.25
- Complete Media [2, 5]: 1.513
- Difference [2, 8]: 0.26

Compound: CN1[C@@H]2CC[C@H]1C[C@@H](OC(=O)C(CO)c1ccccc1)C2 (stereo partly shown) [Atropine]
- Cholesterol-free [1]: 1.317
- Complete [1]: 0.8977
- Difference [1]: −0.42
- Cholesterol-free media + simvastatin (0.04 μM) [2]: 1.317
- Difference [2]: −0.28

Compound: CC(C)C(=O)Oc1ccc(CO)cc1[C@H](CCN(C(C)C)C(C)C)c1ccccc1 [Fesoterodine (L-mandelate)]
- Cholesterol-free [1, 10]: 0.7419
- Complete [1, 11]: 1.264
- Difference [1, 27]: 0.52
- Cholesterol-free media + simvastatin (0.04 μM) [2, 20]: 1.103
- Complete Media [2, 5]: 0.9892
- Difference [2, 14]: −0.11

Compound: O=C(O)c1ccccc1O [Salicylic acid]
- Difference [1, 3]: −0.09
- Cholesterol-free [1, 4]: 0.9773
- Complete [1, 5]: 0.8829
- Cholesterol-free media + simvastatin (0.04 μM) [2, 20]: 0.9788
- Complete Media [2, 5]: 0.8703
- Difference [2, 14]: −0.11

Compound: O=C(O)c1cccnc1 [Niacin]
- Difference [1, 9]: −0.27
- Cholesterol-free [1, 19]: 1.266
- Complete ([1]; NCI-H292 cells, complete media): 0.9994
- Cholesterol-free media + simvastatin (0.04 μM) [2, 6]: 1.244
- Complete Media [2, 7]: 1.362
- Difference [2, 8]: 0.12

Compound: COC(=O)c1ccc2c(c1)NC(=O)/C2=C(\Nc1ccc(N(C)C(=O)CN2CCN(C)CC2)cc1)c1ccccc1 [Nintedanib esylate]
- Difference [1, 9]: 0.02
- Cholesterol-free [1, 10]: 0.5114
- Complete [1, 11]: 0.5279
- Cholesterol-free media + simvastatin (0.04 μM) [2, 24]: 0.7218
- Complete Media [2, 25]: 0.6577
- Difference [2, 26]: −0.06
